System: P12-Ichikawa
Assay: cell viability relative to DMSO control; higher = less cytotoxic
Conditions: 48 h
Procedure, shortened: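 Viability was expressed as a per-plate percentage of DMSO wells, with cell-free wells as background. Leukemia cells (NOMO1 or SEM at 500 cells/well, P12-Ichikawa at 1000 cells/well) were adapted for at least four passages in each medium and seeded in 1536-well plates (5 μl). Library compounds in DMSO were pin-dosed over an 11-point threefold series from 47 μM to 0.79 nM, and CellTiter-Glo One luminescence was read after 48 h at 37°C.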

[1] = HPLM + 10% dialyzed FBS, 0.000781 µM
[2] = HPLM + 10% dialyzed FBS, 0.00234 µM
[3] = HPLM + 10% dialyzed FBS, 0.00702 µM
[4] = HPLM + 10% dialyzed FBS, 0.0211 µM
[5] = HPLM + 10% dialyzed FBS, 0.0632 µM
[6] = HPLM + 10% dialyzed FBS, 0.19 µM
[7] = HPLM + 10% dialyzed FBS, 0.569 µM
[8] = HPLM + 10% dialyzed FBS, 1.71 µM
[9] = HPLM + 10% dialyzed FBS, 5.12 µM
[10] = HPLM + 10% dialyzed FBS, 15.4 µM
[11] = HPLM + 10% dialyzed FBS, 46.1 µM
[12] = RPMI 5 mM glucose + 10% FBS, 0.000781 µM
[13] = RPMI 5 mM glucose + 10% FBS, 0.00234 µM
[14] = RPMI 5 mM glucose + 10% FBS, 0.00702 µM
[15] = RPMI 5 mM glucose + 10% FBS, 0.0211 µM
[16] = RPMI 5 mM glucose + 10% FBS, 0.0632 µM
[17] = RPMI 5 mM glucose + 10% FBS, 0.19 µM
[18] = RPMI 5 mM glucose + 10% FBS, 0.569 µM
[19] = RPMI 5 mM glucose + 10% FBS, 1.71 µM
[20] = RPMI 5 mM glucose + 10% FBS, 5.12 µM
[21] = RPMI 5 mM glucose + 10% FBS, 15.4 µM
[22] = RPMI 5 mM glucose + 10% FBS, 46.1 µM
[23] = RPMI 5 mM glucose + 10% dialyzed FBS, 0.000781 µM
[24] = RPMI 5 mM glucose + 10% dialyzed FBS, 0.00234 µM
[25] = RPMI 5 mM glucose + 10% dialyzed FBS, 0.00702 µM
[26] = RPMI 5 mM glucose + 10% dialyzed FBS, 0.0211 µM
[27] = RPMI 5 mM glucose + 10% dialyzed FBS, 0.0632 µM
[28] = RPMI 5 mM glucose + 10% dialyzed FBS, 0.19 µM
[29] = RPMI 5 mM glucose + 10% dialyzed FBS, 0.569 µM
[30] = RPMI 5 mM glucose + 10% dialyzed FBS, 1.71 µM
[31] = RPMI 5 mM glucose + 10% dialyzed FBS, 5.12 µM
[32] = RPMI 5 mM glucose + 10% dialyzed FBS, 15.4 µM
[33] = RPMI 5 mM glucose + 10% dialyzed FBS, 46.1 µM

Compound	cell viability [1] [%]	cell viability [2] [%]	cell viability [3] [%]	cell viability [4] [%]	cell viability [5] [%]	cell viability [6] [%]	cell viability [7] [%]	cell viability [8] [%]	cell viability [9] [%]	cell viability [10] [%]	cell viability [11] [%]	cell viability [12] [%]	cell viability [13] [%]	cell viability [14] [%]	cell viability [15] [%]	cell viability [16] [%]	cell viability [17] [%]	cell viability [18] [%]	cell viability [19] [%]	cell viability [20] [%]	cell viability [21] [%]	cell viability [22] [%]	cell viability [23] [%]	cell viability [24] [%]	cell viability [25] [%]	cell viability [26] [%]	cell viability [27] [%]	cell viability [28] [%]	cell viability [29] [%]	cell viability [30] [%]	cell viability [31] [%]	cell viability [32] [%]	cell viability [33] [%]
OC[C@H]1O[C@@H](O[C@@H]2[C@@H](CO)O[C@](O)(CO)[C@H]2O)[C@H](O)[C@@H](O)[C@H]1O	98.3	104	95.2	105	110	97	101	97.8	88.8	71.1	93.4	93.4	97.2	97	98.2	100	96.4	99	89.8	94.5	65.2	93.6	90.9	93	92.8	99.5	100	98.5	105	91.5	86	62.2	77.9
Cc1c(CN2CCN(C(=O)[C@H](C)O)CC2)sc2c(N3CCOCC3)nc(-c3cnc(N)nc3)nc12	96.6	99.8	99.1	103	94.9	99.8	75	69.3	63.8	60.8	59.8	95.6	94	90.7	86.8	75.1	79.5	64.4	52.9	49.4	46.2	43.5	93.5	94.8	97.4	98.5	81.6	77.8	63.1	54.5	41.9	46	42.6
CN1[C@@H]2CC[C@H]1CC(OC(=O)c1c[nH]c3ccccc13)C2 (some centres undefined)	125	127	119	96.1	110	117	116	126	111	114	111	–	–	–	–	–	–	–	–	–	–	–	120	115	121	107	116	116	120	117	118	113	107
CC1(C)CCC[C@]2(C)[C@H]3CC(=O)O[C@]3(C)CC[C@@H]12	118	115	114	114	116	110	115	116	110	107	99.1	121	120	122	120	119	124	119	109	109	111	93.5	110	115	119	116	112	113	105	107	108	97.5	92.4
CCCCCOC(=O)NC\1=N\C(=O)N(\C=C1F)[C@@H]2O[C@H](C)[C@@H](O)[C@H]2O	107	91.7	101	103	97.1	103	93.8	96.4	94.2	89.9	86.7	96.7	99.4	97.4	93.7	101	91.5	92.6	93.3	89.6	77.3	84	101	96.1	96.2	94.8	100	93	91.2	87.2	90.1	83.8	83.8
C\C1=C\C(=O)OC2=C1C=CC(=C2)O	122	121	121	122	109	116	108	107	106	102	93	112	119	115	122	109	114	107	111	99.9	118	99.1	122	115	114	122	120	108	114	104	103	104	106
CCc1cc(Nc2nccc(-c3c(-c4ccc(OC)c(C(=O)Nc5c(F)cccc5F)c4)nc4ccccn34)n2)c(OC)cc1N1CCC(N2CCN([S+](C)(=O)[O-])CC2)CC1	97.9	108	100	112	107	112	110	110	112	87.1	39.8	98.3	101	106	105	107	113	111	113	109	85.1	37.9	108	116	112	114	107	107	109	125	115	87.4	49.6
CNC(=O)c1ccc(-c2cnc3ncc(Cc4ccc5ncccc5c4)n3n2)cc1F	113	119	125	129	136	125	134	120	135	124	126	–	–	–	–	–	–	–	–	–	–	–	–	–	–	–	–	–	–	–	–	–	–
OC1=C(O)C2=C(\C=C/C(=O)O2)C=C1	99	104	114	107	101	119	114	117	114	107	81.1	109	115	118	110	99.4	113	124	116	112	109	68	95.1	109	104	104	101	97.5	98	107	105	103	58.3

— the supplement of paper PMC11451515
